From ChEMBL document CHEMBL1201862, “PubChem BioAssay data set” (2004)
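Grown in 96-well plates, cells were treated for 48 hours with each compound at five concentrations. Insufficient inhibition: endpoint recorded as highest concentration tested. Here, GI50 denotes the concentration required for 50% inhibition of growth.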 Activity calls are given as the source filed them. No stated cut-off is given here; in the data, active = GI50 up to about 1.1 µM and inactive = higher.

Tests used:
Test in all cases: inhibition of tumour cell growth, NCI panel, 48 h
IGROV-1 = system: IGROV-1
LXFL 529 = system: LXFL 529
UACC-62 = system: UACC-62
A549 = system: A549
DMS-114 = system: DMS-114
ACHN = system: ACHN
RPMI-8226 = system: RPMI-8226
EKVX = system: EKVX
M14 = system: M14
OVCAR-8 = system: OVCAR-8
MDA-MB-231 = system: MDA-MB-231
HL-60 = system: HL-60
CCRF-CEM = system: CCRF-CEM
U-251 = system: U-251
SK-MEL-2 = system: SK-MEL-2
A498 = system: A498
OVCAR-4 = system: OVCAR-4
OVCAR-5 = system: OVCAR-5
SR = system: SR
SN12C = system: SN12C
SNB-75 = system: SNB-75
NCI-H522 = system: NCI-H522
KM12 = system: KM12
T47D = system: T47D
MDA-N = system: MDA-N
HOP-92 = system: HOP-92
DMS-273 = system: DMS-273
SW-620 = system: SW-620
M19-MEL = system: M19-MEL
LOX IMVI = system: LOX IMVI
Malme-3M = system: Malme-3M
SNB-19 = system: SNB-19
HCT-15 = system: HCT-15
SK-OV-3 = system: SK-OV-3
SK-MEL-5 = system: SK-MEL-5
TK-10 = system: TK-10
MOLT-4 = system: MOLT-4
HCC 2998 = system: HCC 2998
HT-29 = system: HT-29
NCI-H460 = system: NCI-H460
HOP-62 = system: HOP-62
SK-MEL-28 = system: SK-MEL-28
SF-539 = system: SF-539
MCF7 = system: MCF7
MDA-MB-435 = system: MDA-MB-435
NCI/ADR-RES = system: NCI/ADR-RES
K562 = system: K562
SF-295 = system: SF-295
DLD-1 = system: DLD-1
PC-3 = system: PC-3
SF-268 = system: SF-268
786-0 = system: 786-0
COLO 205 = system: COLO 205
UO-31 = system: UO-31
CAKI-1 = system: CAKI-1
Hs-578T = system: Hs-578T
DU-145 = system: DU-145
UACC-257 = system: UACC-257
NCI-H226 = system: NCI-H226
OVCAR-3 = system: OVCAR-3
HCT-116 = system: HCT-116
RXF 393 = system: RXF 393
NCI-H23 = system: NCI-H23
BT-549 = system: BT-549

## CCN(CC)CCNc1ccc2nc(C)n3c4ccc(OC)cc4c(=O)c1c23
IGROV-1
  GI50: 0.494 µM (active)
LXFL 529
  GI50: 1.41 µM (inactive)
UACC-62
  GI50: 4.9 µM (inactive)
A549
  GI50: 0.668 µM (active)
DMS-114
  GI50: 2.58 µM (inactive)
ACHN
  GI50: 0.367 µM (active)
RPMI-8226
  GI50: 1.36 µM (inactive)
EKVX
  GI50: 1.69 µM (inactive)
M14
  GI50: 10.5 µM (inactive)
OVCAR-8
  GI50: 0.575 µM (active)
MDA-MB-231
  GI50: 0.423 µM (active)
HL-60
  GI50: 1.17 µM (inactive)
CCRF-CEM
  GI50: 0.126 µM (active)
U-251
  GI50: 4.39 µM (inactive)
SK-MEL-2
  GI50: 12.4 µM (inactive)
A498
  GI50: 3.7 µM (inactive)
OVCAR-4
  GI50: 1.41 µM (inactive)
OVCAR-5
  GI50: 4.82 µM (inactive)
SR
  GI50: 0.165 µM (active)
SN12C
  GI50: 0.546 µM (active)
SNB-75
  GI50: 4.68 µM (inactive)
NCI-H522
  GI50: 0.272 µM (active)
KM12
  GI50: 1.8 µM (inactive)
T47D
  GI50: 17.8 µM (inactive)
MDA-N
  GI50: 1.41 µM (inactive)
HOP-92
  GI50: 5.92 µM (inactive)
DMS-273
  GI50: 0.695 µM (active)
SW-620
  GI50: 0.711 µM (active)
M19-MEL
  GI50: 6.59 µM (inactive)
LOX IMVI
  GI50: 1.15 µM (inactive)
Malme-3M
  GI50: 5.33 µM (inactive)
SNB-19
  GI50: 1.03 µM (active)
HCT-15
  GI50: 1.22 µM
SK-OV-3
  GI50: 5.48 µM (inactive)
SK-MEL-5
  GI50: 5.57 µM (inactive)
TK-10
  GI50: 0.873 µM (active)
MOLT-4
  GI50: 0.0959 µM (active)
HCC 2998
  GI50: 0.8 µM (active)
HT-29
  GI50: 0.323 µM (active)
NCI-H460
  GI50: 0.538 µM (active)
HOP-62
  GI50: 4.06 µM (inactive)
SK-MEL-28
  GI50: 10.4 µM (inactive)
SF-539
  GI50: 1.91 µM (inactive)
MCF7
  GI50: 0.354 µM (active)
MDA-MB-435
  GI50: 11.2 µM (inactive)
NCI/ADR-RES
  GI50: 0.675 µM (active)
K562
  GI50: 0.401 µM (active)
SF-295
  GI50: 0.641 µM (active)
DLD-1
  GI50: 0.463 µM (active)
PC-3
  GI50: 0.955 µM (active)
SF-268
  GI50: 0.979 µM (active)
786-0
  GI50: 0.558 µM (active)
COLO 205
  GI50: 0.693 µM (active)
UO-31
  GI50: 3.08 µM (inactive)
CAKI-1
  GI50: 1.86 µM (inactive)
Hs-578T
  GI50: 1.04 µM (active)
DU-145
  GI50: 1.29 µM (inactive)
UACC-257
  GI50: 8.75 µM (inactive)
NCI-H226
  GI50: 0.316 µM (active)
OVCAR-3
  GI50: 3.14 µM (inactive)
HCT-116
  GI50: 0.282 µM (active)
RXF 393
  GI50: 4.07 µM (inactive)
NCI-H23
  GI50: 2.06 µM (inactive)
BT-549
  GI50: 5.31 µM (inactive)

## COC(=O)c1cccc(OC)c1C#Cc1c(OC)cccc1OC
IGROV-1
  GI50: > 100 µM (inactive)
UACC-62
  GI50: > 100 µM (inactive)
A549
  GI50: > 100 µM (inactive)
ACHN
  GI50: > 100 µM (inactive)
RPMI-8226
  GI50: > 100 µM (inactive)
EKVX
  GI50: > 100 µM (inactive)
M14
  GI50: > 100 µM (inactive)
OVCAR-8
  GI50: > 100 µM (inactive)
MDA-MB-231
  GI50: > 100 µM (inactive)
HL-60
  GI50: > 100 µM (inactive)
CCRF-CEM
  GI50: > 100 µM (inactive)
U-251
  GI50: > 100 µM (inactive)
SK-MEL-2
  GI50: > 100 µM (inactive)
A498
  GI50: > 100 µM (inactive)
OVCAR-4
  GI50: 54.1 µM (inactive)
OVCAR-5
  GI50: > 100 µM (inactive)
SR
  GI50: > 100 µM (inactive)
SN12C
  GI50: > 100 µM (inactive)
SNB-75
  GI50: > 100 µM (inactive)
NCI-H522
  GI50: 0.47 µM (active)
KM12
  GI50: 69.7 µM (inactive)
T47D
  GI50: 76.2 µM (inactive)
MDA-N
  GI50: 53.2 µM (inactive)
HOP-92
  GI50: > 100 µM (inactive)
SW-620
  GI50: > 100 µM (inactive)
LOX IMVI
  GI50: > 100 µM (inactive)
Malme-3M
  GI50: > 100 µM (inactive)
SNB-19
  GI50: > 100 µM (inactive)
HCT-15
  GI50: > 100 µM
SK-OV-3
  GI50: > 100 µM (inactive)
SK-MEL-5
  GI50: > 100 µM (inactive)
TK-10
  GI50: > 100 µM (inactive)
MOLT-4
  GI50: > 100 µM (inactive)
HCC 2998
  GI50: > 100 µM (inactive)
HT-29
  GI50: > 100 µM (inactive)
NCI-H460
  GI50: > 100 µM (inactive)
HOP-62
  GI50: > 100 µM (inactive)
SK-MEL-28
  GI50: > 100 µM (inactive)
SF-539
  GI50: > 100 µM (inactive)
MCF7
  GI50: > 100 µM (inactive)
MDA-MB-435
  GI50: 47.8 µM (inactive)
NCI/ADR-RES
  GI50: > 100 µM (inactive)
K562
  GI50: > 100 µM (inactive)
SF-295
  GI50: > 100 µM (inactive)
PC-3
  GI50: > 100 µM (inactive)
SF-268
  GI50: > 100 µM (inactive)
786-0
  GI50: > 100 µM (inactive)
COLO 205
  GI50: > 100 µM (inactive)
UO-31
  GI50: > 100 µM (inactive)
CAKI-1
  GI50: > 100 µM (inactive)
Hs-578T
  GI50: > 100 µM (inactive)
DU-145
  GI50: > 100 µM (inactive)
UACC-257
  GI50: > 100 µM (inactive)
NCI-H226
  GI50: > 100 µM (inactive)
OVCAR-3
  GI50: > 100 µM (inactive)
HCT-116
  GI50: > 100 µM (inactive)
RXF 393
  GI50: > 100 µM (inactive)
NCI-H23
  GI50: > 100 µM (inactive)
BT-549
  GI50: > 100 µM (inactive)
